Experimental data reported in patent US20070270429A1, “Function Inhibitor of Effector Cell” (priority 2003, published 2007).

Tested on: human CD8-positive T cell
Assay: Allo-reaction growth test (class I-MLR) of human CD8-positive T cell with dendritic cell
Type: cell-based
Conditions: 5 days
Experimental: After treating the cells with BrdU for a predetermined period of time, the plate was centrifuged (300×g, 10 minutes), and then turned upside down and lightly shaken to remove the labeled medium. The plate was dried (for about 15 minutes) using a hair dryer. A cell fixing and DNA denaturing solution (200 μl, attached to the kit) was added to each well and left alone for 30 minutes. After removing the cell fixing and DNA denaturing solution and further removing water, a peroxidase-labeled anti-BrdU antibody (anti-BrdU-POD reaction solution) (100 μl) (attached to the kit) was added thereto and left alone at room temperature for 90 minutes. The antibody solution was discarded, each well was washed three times with PBS (200 μl), water was discarded, and then the substrate solution (100 μl) (attached to the kit) was added thereto. After carrying out the enzyme reaction for a period of 5 to 30 minutes, 1 N sulfuric acid solution (25 μl) was added thereto and stirred on a shaker. The absorbance of samples was measured by a microplate reader (SPECTRAMAX-PRO) at 450 nm (control wavelength: 690 nm).
A heparinized blood sample was collected from a human, healthy volunteer, and peripheral blood mononuclear cell (PBMC) was isolated by the density gradient centrifugation described in the above-described (2-1). CD8-positive T cell was isolated from this PBMC by the negative selection method described in the above-described (2-1).
CD 14-positive cell was obtained by fractionating the PBMC obtained by the above-described method using VarioMACS (Miltenyl Biotec). Specifically, CD14 antigen was labeled with antibody magnetic beads by adding 20 μl of CD14 MicroBeads (Miltenyl Biotec) to 1×10^7 cells of the PBMC, mixing them and incubating at 6 to 12° C. for 15 minutes. The cells were washed once with an MACS buffer (PBS containing 2 mM EDTA and 0.5% bovine serum albumin (BSA)) (20 ml) (attached to the kit) and re-suspended in the MACS buffer (2 ml). […]

Question: What does the source list for CCCCN1C(=O)[C@@H]([C@H](O)C2CCCCC2)NC(=O)C12CCN(Cc1ccc(Cc3ccc(C(=O)O)cc3OC)cc1)CC2 [Compound (b), 4-[4-({(3R)-1-butyl-3-[(R)-cyclohexyl(hydroxy)methyl]-2,5-dioxo-1,4,9-triazaspiro[5.5]undec-9-yl}methyl)benzyl]-3-methoxybenzoic acid]?
Answer: inhibition ratio of allo-reaction growth (0.1 μM): 7.8%; inhibition ratio of allo-reaction growth (1 μM): 17.6%; inhibition ratio of allo-reaction growth (10 μM): 44.1%
